Calls of active or inactive are those of the source. No cut-off for these calls is given here. *1 amine or outer side, *2 acyl side, *3 side chain or, on linkers, in order; H or OH if unused. Where a SMILES comes first, the peptide text is derived from it. Bridges are numbered along the chain shown (N, C = ends). Roman numbers before positions name the chains, in order. [ ]: non-standard residue; d: D form. Actinocin(9to1) = Cc1c2oc3c(C)ccc(C(=O)[*:1])c3nc-2c(C(=O)[*:2])c(N)c1=O; NMeV = CN[C@H](C(=O)O)C(C)C; Sar = CNCC(=O)O
Experiments:
Nucleic Acid [1] = assay: Displacement of ethidium bromide from human pre-hsa-mir-155 miRNA after 30 mins; type: nucleic-acid assay
[2] = Aqueous solubility of the compound; type: physicochemical; conditions: buffer
Nucleic Acid [3] = assay: Binding affinity to human pre-hsa-mir-155 miRNA assessed as inhibition of dicer-catalysed (33P)-labelled pre-miRNA processing at 1 mM after 1 hr by PAGE analysis; type: nucleic-acid assay; conditions: for residual activity: values are per cent of control
Nucleic Acid [4] = assay: Binding affinity to human pre-hsa-mir-155 miRNA assessed as melting temperature at 2 uM (reference value: 48 degC); type: nucleic-acid assay
Nucleic Acid [5] = assay: Binding affinity to human pre-hsa-mir-155 miRNA assessed as increase in melting temperature; type: nucleic-acid assay
Nucleic Acid [6] = assay: Binding affinity to human pre-hsa-mir-155 miRNA assessed as melting temperature at 10 uM (reference value: 48 degC); type: nucleic-acid assay
Nucleic Acid [7] = assay: Binding affinity to human pre-hsa-mir-155 miRNA assessed as melting temperature at 12 uM (reference value: 48 degC); type: nucleic-acid assay
Nucleic Acid [8] = assay: Binding affinity to human pre-hsa-mir-155 miRNA assessed as increase in fluorescence after 30 mins by fluorimetry; type: nucleic-acid assay
Nucleic Acid [9] = assay: Binding affinity to human pre-hsa-mir-155 miRNA assessed as melting temperature at 112 uM (reference value: 48 degC); type: nucleic-acid assay

C=C1c2cccc(O)c2C(=O)C2=C(O)[C@]3(O)C(=O)C(C(N)=O)=C(O)[C@@H](N(C)C)[C@@H]3[C@@H](O)[C@H]12.Cl [METHACYCLINE HYDROCHLORIDE]
Activity (Nucleic Acid [1]): inactive | solubility [2]: soluble

NC[C@H]1O[C@H](O[C@H]2[C@H](O)[C@@H](O[C@H]3O[C@H](CO)[C@@H](O)[C@H](N)[C@H]3O)[C@H](N)C[C@@H]2N)[C@H](N)[C@@H](O)[C@@H]1O [BEKANAMYCIN]
Kd (Nucleic Acid [1]): 6 µM

CN(C)[C@@H]1C(O)=C(C(N)=O)C(=O)[C@@]2(O)C(O)=C3C(=O)c4c(O)cccc4[C@@](C)(O)[C@H]3C[C@@H]12
Activity (Nucleic Acid [1]): inactive

NC[C@@H]1O[C@H](O[C@H]2[C@@H](O)[C@H](O[C@@H]3[C@@H](O)[C@H](N)C[C@H](N)[C@H]3O[C@H]3O[C@H](CN)[C@@H](O)[C@H](O)[C@H]3N)O[C@@H]2CO)[C@H](N)[C@@H](O)[C@@H]1O (stereo in doubt; form 2) [FRAMYCETIN]
Kd (Nucleic Acid [1]): 11 µM

Nc1ccc2cc3ccc(N)cc3nc2c1
residual activity (Nucleic Acid [3]): 93%

NC[C@@H]1O[C@H](O[C@H]2[C@@H](O)[C@H](O[C@@H]3[C@@H](O)[C@H](N)C[C@H](N)[C@H]3O[C@H]3O[C@H](CN)[C@@H](O)[C@H](O)[C@H]3N)O[C@@H]2CO)[C@H](N)[C@@H](O)[C@@H]1O (stereo in doubt; form 1)
Tm (Nucleic Acid [4]): 50 °C | Activity (Nucleic Acid [5]): Dose-dependent effect | Tm (Nucleic Acid [6]): > 70 °C | Tm (Nucleic Acid [7]): > 70 °C | residual activity (Nucleic Acid [3]): 10%

CN[C@H](CC(C)C)C(=O)N[C@H]1C(=O)N[C@@H](CC(N)=O)C(=O)N[C@H]2C(=O)N[C@H]3C(=O)N[C@H](C(=O)N[C@H](C(=O)O)c4cc(O)cc(O)c4-c4cc3ccc4O)[C@H](O)c3ccc(c(Cl)c3)Oc3cc2cc(c3O[C@@H]2O[C@H](CO)[C@@H](O)[C@H](O)[C@H]2O[C@H]2C[C@](C)(N)[C@H](O)[C@H](C)O2)Oc2ccc(cc2Cl)[C@H]1O
inhibition (Nucleic Acid [3]): inactive

CN(C)c1ccc(O)c2c1C[C@H]1C[C@H]3[C@H](N(C)C)C(O)=C(C(N)=O)C(=O)[C@@]3(O)C(O)=C1C2=O
Activity (Nucleic Acid [1]): inactive

CN1CCN(c2ccc3[nH]c(-c4ccc5[nH]c(-c6ccc(O)cc6)nc5c4)nc3c2)CC1
Kd (Nucleic Acid [8]): 14 µM | residual activity (Nucleic Acid [3]): 40%

Cc1c2c(c(O)c3c(O)cccc13)C(=O)[C@]1(O)C(=O)C(C(N)=O)=C(O)[C@H](N(C)C)[C@@H]1C2.Cl
Activity (Nucleic Acid [1]): inactive | solubility [2]: soluble

CN(C)[C@H]1C(O)=C(C(N)=O)C(=O)[C@@]2(O)C(O)=C3C(=O)c4c(O)cccc4[C@@](C)(O)[C@H]3C[C@@H]12
Activity (Nucleic Acid [1]): inactive

COc1cccc2c1C(=O)c1c(O)c3c(c(O)c1C2=O)C[C@@](O)(C(C)=O)C[C@@H]3O[C@H]1C[C@H](N)[C@H](O)[C@H](C)O1
residual activity (Nucleic Acid [3]): 19%

CCN[C@@H]1C[C@H](N)[C@@H](O[C@H]2OC(CN)=CC[C@H]2N)[C@H](O)[C@H]1O[C@H]1OC[C@](C)(O)[C@H](NC)[C@H]1O [NETILMICIN]
Kd (Nucleic Acid [1]): > 100 µM

NCC[C@H](O)C(=O)N[C@@H]1C[C@H](N)[C@@H](O[C@H]2O[C@H](CN)[C@@H](O)[C@H](O)[C@H]2O)[C@H](O)[C@H]1O[C@H]1O[C@H](CO)[C@@H](O)[C@H](N)[C@H]1O [AMIKACIN]
Kd (Nucleic Acid [1]): > 100 µM

CC[n+]1c(-c2ccccc2)c2cc(N)ccc2c2ccc(N)cc21 [HOMIDIUM BROMIDE]
Kd (Nucleic Acid [8]): 5 µM

NC[C@@H]1O[C@@H](O[C@H]2[C@H](O)[C@@H](O[C@H]3O[C@H](CO)[C@@H](O)[C@H](N)[C@H]3O)[C@H](N)C[C@@H]2N)[C@@H](O)[C@H](O)[C@H]1O [KANAMYCIN A]
Tm (Nucleic Acid [4]): 55 °C | Kd (Nucleic Acid [1]): 141 µM | Tm (Nucleic Acid [9]): > 70 °C | Activity (Nucleic Acid [5]): Dose-dependent effect | Tm (Nucleic Acid [7]): 64 °C

CN(C)[C@H]1C(O)=C(C(N)=O)C(=O)[C@@]2(O)C(O)=C3C(=O)c4c(O)ccc(Cl)c4[C@@](C)(O)[C@H]3C[C@@H]12
Activity (Nucleic Acid [1]): inactive

Cc1c2c(c(O)c3c(O)ccc(Cl)c13)C(=O)[C@]1(O)C(=O)C(C(N)=O)=C(O)[C@H](N(C)C)[C@@H]1C2.Cl
Activity (Nucleic Acid [1]): inactive | solubility [2]: soluble

GENTAMICIN
Kd (Nucleic Acid [1]): > 100 µM

COc1ccc2cc3[n+](cc2c1OC)CCc1cc2c(cc1-3)OCO2
inhibition (Nucleic Acid [3]): inactive

BLEOMYCIN
inhibition (Nucleic Acid [3]): inactive

CCO.C[C@H]1c2cccc(O)c2C(=O)C2=C(O)[C@]3(O)C(=O)C(C(N)=O)=C(O)[C@@H](N(C)C)[C@@H]3[C@@H](O)[C@@H]21.Cl.O
Activity (Nucleic Acid [1]): inactive | solubility [2]: soluble

CN[C@@H]1[C@H](O[C@H]2[C@H](O[C@H]3[C@H](O)[C@@H](O)[C@H](NC(=N)N)[C@@H](O)[C@@H]3NC(=N)N)O[C@@H](C)[C@]2(O)CO)O[C@@H](CO)[C@H](O)[C@H]1O [DIHYDROSTREPTOMYCIN]
Kd (Nucleic Acid [1]): > 100 µM

CN(C)[C@@H]1C(O)=C(C(N)=O)C(=O)[C@@]2(O)C(O)=C3C(=O)c4c(O)ccc(Cl)c4[C@@H](O)[C@H]3C[C@@H]12.Cl [DEMECLOCYCLINE HYDROCHLORIDE]
Activity (Nucleic Acid [1]): inactive | solubility [2]: soluble

NC[C@@H]1O[C@H](O[C@H]2[C@@H](O)[C@H](O[C@@H]3[C@@H](O)[C@H](N)C[C@H](N)[C@H]3O[C@H]3O[C@H](CN)[C@@H](O)[C@H](O)[C@H]3N)O[C@@H]2CO)[C@H](N)[C@@H](O)[C@@H]1O (stereo in doubt; form 2)
Tm (Nucleic Acid [4]): 48 °C | Tm (Nucleic Acid [7]): > 70 °C | residual activity (Nucleic Acid [3]): 10%

NC[C@@H]1O[C@H](O[C@H]2[C@@H](O)[C@H](O[C@@H]3[C@@H](O)[C@H](N)C[C@H](N)[C@H]3O[C@H]3O[C@H](CN)[C@@H](O)[C@H](O)[C@H]3N)O[C@@H]2CO)[C@H](N)[C@@H](O)[C@@H]1O (stereo in doubt; form 1) [FRAMYCETIN]
Kd (Nucleic Acid [1]): 6 µM

Cc1c2oc3c(C)ccc(C(=O)N[C@@H]4C(=O)N[C@H](C(C)C)C(=O)N5CCC[C@H]5C(=O)N(C)CC(=O)N(C)[C@@H](C(C)C)C(=O)O[C@@H]4C)c3nc-2c(C(=O)N[C@@H]2C(=O)N[C@H](C(C)C)C(=O)N3CCC[C@H]3C(=O)N(C)CC(=O)N(C)[C@@H](C(C)C)C(=O)O[C@@H]2C)c(N)c1=O (I: T[dV]P[Sar][NMeV] / II: T[dV]P[Sar][NMeV]; ester I:1-I:C, II:1-II:C; linker I:N-II:N via Actinocin(9to1))
inhibition (Nucleic Acid [3]): inactive

Cc1c2c(c(O)c3c(O)cccc13)C(=O)[C@]1(O)C(=O)C(C(N)=O)=C(O)[C@@H](N(C)C)[C@@H]1C2.Cl [ANHYDROTETRACYCLINE HYDROCHLORIDE]
Activity (Nucleic Acid [1]): inactive | solubility [2]: soluble

NC[C@H]1O[C@H](O[C@H]2[C@H](O)[C@@H](O[C@H]3O[C@H](CO)[C@@H](O)[C@H](N)[C@H]3O)[C@H](N)C[C@@H]2N)[C@H](N)C[C@@H]1O [TOBRAMYCIN]
Kd (Nucleic Acid [1]): > 100 µM

CCN(CC)CCCC(C)Nc1c2ccc(Cl)cc2nc2ccc(OC)cc12 (stereo unspecified)
inhibition (Nucleic Acid [3]): inactive

CN[C@@H]1[C@@H](O[C@H]2O[C@H](CO)[C@@H](N)[C@H](O)[C@H]2O)OC2C[C@@H](N)[C@@H](O[C@H]3[C@H](O)[C@@H](O)[C@H](N)C[C@@H]3N)OC2[C@@H]1O (stereo partly specified)
residual activity (Nucleic Acid [3]): 10%

CN[C@@H]1[C@H](O)[C@H](NC)[C@H]2O[C@@]3(O)C(=O)C[C@@H](C)O[C@H]3O[C@@H]2[C@H]1O [SPECTINOMYCIN]
Kd (Nucleic Acid [1]): > 100 µM

N=C(N)c1ccc(-c2cc3ccc(C(=N)N)cc3[nH]2)cc1
residual activity (Nucleic Acid [3]): 100%

COc1cccc2c1C(=O)c1c(O)c3c(c(O)c1C2=O)C[C@@](O)(C(=O)CO)C[C@@H]3O[C@H]1C[C@H](N)[C@H](O)[C@H](C)O1
residual activity (Nucleic Acid [3]): 83%
